Test results published in PMC8577775, “Small molecule allosteric inhibitors of RORγt block Th17-dependent inflammation and associated gene expression in vivo” (PLoS ONE, 2021).

Experiments:
[1] = system: IMQ-induced skin inflammation in Balb/c mice; assay: Imiquimod (IMQ)-induced skin inflammation model; type: in vivo, mouse; conditions: day 4; for ear thickness: control-treated 0.17 ± 0.002 mm
Protocol: For IMQ-induced skin inflammation, wild-type (WT) Balb/c female mice, 5–8 weeks of age, were purchased from Charles River Laboratories. All mice were housed in pathogen-free conditions at Bristol Myers Squibb (Cambridge, MA). Aldara cream containing 5% imiquimod (Patterson Veterinary Supply, Inc; Devens, MA) was applied to the ears daily (11–14 mg) for 3 days. Mice were treated twice daily (BID) on days 1–4 per os (PO) with vehicle (0.5% methylcellulose/0.25% Tween80) or RORγt inhibitors at indicated doses immediately prior to Aldara application. Ear thickness was measured using micro-calipers. Tissues were harvested on day 4, 2 hours following the last compound dose. Naïve mice are completely untreated, receiving neither control vehicle for IMQ nor Compound.
For RNA isolation & gene expression, ears are collected on day 4 in RNAlater (Qiagen) and stored at 4°C until processed. Ears were homogenized using Procellys 24 homogenizer & hard tissue homogenizing beads (Bertin Instruments), 2 cycles of 30 seconds @ 6000 rpm in RLT lysis buffer according to manufacturer’s instructions. RNA was isolated using RNAeasy Plus MiniPrep columns (Qiagen) and cDNA generated using SuperScript VILO cDNA Synthesis kit (Invitrogen). Gene expression was quantified using TaqMan Fast Master Mix & and TaqMan FAM-MGB probe sets (Applied Biosystems): Gapdh, Mm99999915_g1, Il17a, Mm00439618_m1, Il17f, Mm00521423_m1, Il22, Mm01226722_g1 & Bclxl, Mm00437783_m1. QPCR reactions were run on QuantStudio 7 instrument. Relative quantification and fold changes were calculated using ddCT values against Gapdh and normalized to control-treated animals. For PDAC xenografts, RNA was isolated from tumor sections using Qiagen RNeasy kit (cat#74106), then cDNA was prepared using 2 μg of RNA and the high capacity RNA to cDNA kit (Applied Biosystems, cat#4387406) as per manufacturer’s instructions. Biomarker expression was determined using Taqman gene expression probes (S1 Table) and Universal master mix (ThermoFisher Scientific cat#4305719) with expression levels normalized to Gapdh.
For cytokine production, ears are removed, split in half using forceps and floated, dermis side-down, in DMEM media (Gibco) and incubated at 37° C for 24 hours. Following incubation, media was removed and cytokine production assessed by Luminex assay (Bio-Rad Laboratories).

PDAC PDO model T031P = assay: In vitro organoid formation assay (CellTiter-Glo 3D); type: cell-based; conditions: Homo sapiens, T031P, treated 24 hr post-plating
Protocol: Patient derived organoids were established as previously described. Briefly, PDX tumor chunks were minced then enzymatically digested into single cells by using a tumor dissociation Kit (Miltenyi, Cat# 130-095-929). Mouse and human cells were separated through magnetic separation, and isolated tumor cells were cultured on Matrigel-coated dishes. Organoid cultures were maintained by growing on Matrigel in human complete maintenance media: Advanced DMEM/F12 media (Life Technology, Cat# 12634028), 10 mM HEPES (Life Technology, Cat# 15630–080), 1X Glutamax (Life Technology, Cat# 35050–061), 1X Antibiotic-Antimycotic (Life Technology, Cat# 15240–062), 10 mM Nicotinamide (Sigma-Aldrich, Cat# N0636-500G), 250 ng/mL R-Spondin-1 (Peprotech, Cat# 120–38), 100 ng/mL Noggin (Peprotech, Cat# 120-10C), 50 ng/mL EGF (Peprotech, Cat# AF-100-15), 100 ng/mL FGF10 (Peprotech, Cat# 100–26), […] (Sigma-Aldrich, Cat# G9020), 500 nM A83-01 (Sigma, Cat# SML0788), 20 μM Y-27632 (LC Laboratories, Cat# Y-5301), 1X B27 (Life Technology, Cat# 12587010), 10 ng/mL Wnt3a (R&D Systems, Cat# 5036-WN-010), 0.1% Methylcelluose (R&D Systems, Cat# HSC001) and Plasmocin (Invivogen, Cat# Ant-mpp) and were passaged every 10–14 days. Organoids were isolated from Matrigel (Corning, Cat# 08-774-406) in a cell recovery solution (Corning, Cat# CB-40253). Spheroid clusters were then dissociated into a single cell suspension with TrypLE (Gibco, Cat# 12605). […]
Organoids were isolated and dissociated as described above. Cell numbers were counted by trypan blue exclusion and 5000 cells per well were plated on the Matrigel coated and pre-warmed 96-well plates. […] 100 μl of CellTiter-Glo® 3D reagent (Promega cat# G9682) was added to each well after desired time points and luminescence signal measured after 30 minutes.
Supplementary file pone.0248034.s010.tif: S6 Fig Schematic of Patient-derived organoids (PDO) growth & formation assays. […] After the indicated treatment schedule organoid growth or formation was assessed by CTG assay. […]

[2] = system: KP/C pancreatic tumors in C57Bl/6 mice; assay: In vivo tumor growth suppression, KP/C mouse model
Protocol: Pancreatic tumor chunks from KP/C mice [20] on C57Bl/6 background were inoculated subcutaneously in the flank of syngeneic mice. […] Tumor volumes and body weight were measured twice each week.
To test whether inhibition of RORγt can lead to tumor growth inhibition we utilized the Kras^G12D/+/Trp53^null/Pdx1-cre (KP/C) mouse model of pancreatic cancer [20]. C57Bl/6 mice were inoculated in the flank with KP/C tumor chunks and enrolled in the study when the average tumor volume reached 200 mm^3. […] To evaluate target engagement, we examined changes in expression of a subset of potential RORγt target genes in tumor samples.

Q: Which results are given for `O=C(O)[C@@H]1CCC(c2nn(C(=O)c3c(Cl)cccc3C(F)(F)F)c3cccc(F)c23)=C[C@H]1O` [Compound 3]?
A: ear thickness ([1]; 25 mg/kg PO): 0.163 ± 0.002 mm; ear thickness ([1]; 50 mg/kg PO): 0.156 ± 0.001 mm; ear thickness ([1]; 100 mg/kg PO): 0.143 ± 0.002 mm; Th17-cytokine gene expression in ear skin ([1]; 50 and 100 mg/kg dosed groups): reduced; Bclxl expression in skin tissues ([1]; oral administration, IMQ model): significantly reduced; IC50 (PDAC PDO model T031P; 120 hours): 30 µM; IC50 (PDAC PDO model T031P; 168 hours): 10 µM; tumor volume, combination with gemcitabine ([2]; Compound 3 30mg/kg BID plus gemcitabine vs gemcitabine): no additional benefit; tumor volume ([2]; single agent vs vehicle, 28 days of dosing): not statistically significant
